Our source for the IC50 and melting point values is US8198456B2, “Dihydropyridine derivatives as useful as protein kinase inhibitors” (Bayer Intellectual Property GmbH, priority 2006, dated 2012).

Each structure is given as a SMILES string.

T1 sequence (P08581 960-1390): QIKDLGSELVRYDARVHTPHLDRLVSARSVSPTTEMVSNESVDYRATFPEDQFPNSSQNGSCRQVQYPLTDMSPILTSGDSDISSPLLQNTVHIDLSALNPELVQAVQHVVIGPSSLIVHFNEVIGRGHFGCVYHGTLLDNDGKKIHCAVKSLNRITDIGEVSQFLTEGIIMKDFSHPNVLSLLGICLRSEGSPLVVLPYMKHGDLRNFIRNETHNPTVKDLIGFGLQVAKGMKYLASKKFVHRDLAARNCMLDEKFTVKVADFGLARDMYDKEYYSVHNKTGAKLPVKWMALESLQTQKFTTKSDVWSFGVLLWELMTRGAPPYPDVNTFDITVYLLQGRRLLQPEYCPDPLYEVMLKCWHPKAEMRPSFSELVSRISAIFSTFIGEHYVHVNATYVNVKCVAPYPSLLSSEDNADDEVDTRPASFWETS

One series has as its target T1, recombinant human c-MET kinase enzyme domain (Homo sapiens, UniProt P08581).
T1 construct: Recombinant c-Met kinase domain (amino acids 960-1390); His (N); made in house; host or cells: baculovirus expression system (insect cells; SF21 is named only for the alternative format)
The series is described as follows: c-MET receptor tyrosine kinase Homogeneous Time Resolved Fluorescence assay (HTRF). In kind it is biochemical. As to conditions: Biological Example 1 and/or Biological Example 2. An outline of the steps:
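His-tagged c-Met kinase domain (aa 960-1390, baculovirus) phosphorylated biotinylated poly-Glu-Tyr (37 nM) with 20 μM ATP in HEPES pH 7.4, Mg/Mn, DTT, 1% DMSO, 20 min at ambient temperature, EDTA-stopped. HTRF read (PT66-Eu/streptavidin-XL665, 665/620 nm ratio) after 4 h; IC50 from eight 1:3.16 dilutions.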
In general terms: In TR-FRET formats the signal depends on donor and acceptor labels being close together.
For `CCNc1n[nH]c2ccc(C3C(C#N)=C(C)NC(C)=C3C#N)cc12` [compound 121, 4-[3-(ethylamino)-1H-indazol-5-yl]-1,4-dihydro-2,6-dimethyl-3,5-pyridinedicarbonitrile], the IC50 was less than 100 nM.

On to `CC1=C(C#N)C(c2ccc3[nH]nc(N)c3c2)C(C#N)=C(C)N1Cc1ccccc1` [compound 293, 4-(3-amino-1H-indazol-5-yl)-1,4-dihydro-2,6-dimethyl-1-(phenylmethyl)-3,5-pyridinedicarbonitrile], for which the IC50 is less than 100 nM.

Take `CCN1C(C)=C(C#N)C(c2ccc3[nH]nc(N)c3c2)C(C#N)=C1C` [compound 294, 1-ethyl-4-(3-amino-1H-indazol-5-yl)-1,4-dihydro-2,6-dimethyl-3,5-pyridinedicarbonitrile]: the 50% inhibitory concentration (IC50) was less than 100 nM.

Take `CC1=C(C#N)C(c2ccc3[nH]nc(Cl)c3c2)C(C#N)=C(C)N1CCO` [compound 297, 4-(3-chloro-1H-indazol-5-yl)-1,4-dihydro-1-(2-hydroxyethyl)-2,6-dimethyl-3,5-pyridinedicarbonitrile]: the IC50 is less than 100 nM.

Regarding `CC1=C(C#N)C(c2ccc3[nH]nc(Cl)c3c2)C(C#N)=C(C)N1C` [compound 298, 4-(3-chloro-1H-indazol-5-yl)-1,4-dihydro-1,2,6-trimethyl-3,5-pyridinedicarbonitrile], the IC50 was less than 100 nM.

For the molecule `CC1=C(C#N)C(c2ccc3[nH]nc(N)c3c2)C(C#N)=C(C)N1CCO` [compound 299, 4-(3-amino-1H-indazol-5-yl)-1,4-dihydro-1-(2-hydroxyethyl)-2,6-dimethyl-3,5-pyridinedicarbonitrile], the IC50 is less than 100 nM.

For `CC1=C(C#N)C(c2ccc3[nH]nc(C)c3c2)C(C#N)=C(C)N1C1CC1` [compound 301, 1-cyclopropyl-1,4-dihydro-2,6-dimethyl-4-(3-methyl-1H-indazol-5-yl)-3,5-pyridinedicarbonitrile], the IC50 was less than 100 nM.

In the case of `C#CCN1C(C)=C(C#N)C(c2ccc3[nH]ncc3c2)C(C#N)=C1C` [compound 302, 1,4-dihydro-4-(1H-indazol-5-yl)-2,6-dimethyl-1-(2-propynyl)-3,5-pyridinedicarbonitrile], the IC50 was less than 100 nM.

For the molecule `CC1=C(C#N)C(c2ccc3[nH]ncc3c2)C(C#N)=C2CCCCN12` (centres unmarked) [compound 304, 6,7,8,9-tetrahydro-2-(1H-indazol-5-yl)-4-methyl-2H-quinolizine-1,3-dicarbonitrile], the half-inhibitory concentration (IC50) was less than 100 nM.

In the case of `CC1=C(C#N)C(c2ccc3[nH]nc(C)c3c2)C(C#N)=C(C)N1C` [compound 306, 1,4-dihydro-1,2,6-trimethyl-4-(3-methyl-1H-indazol-5-yl)-3,5-pyridinedicarbonitrile], the IC50 is less than 100 nM.

Turning to `CC1=C(C#N)C(c2ccc3[nH]nc(NCCN4CCOCC4)c3c2)C(C#N)=C(C)N1` [compound 307, 1,4-dihydro-2,6-dimethyl-4-[3-[[2-(4-morpholinyl)ethyl]amino]-1H-indazol-5-yl]-3,5-pyridinedicarbonitrile], the concentration for half-maximal inhibition (IC50) was less than 100 nM.

Regarding `CC1=C(C#N)C(c2ccc3[nH]nc(NCCN)c3c2)C(C#N)=C(C)N1` [compound 308, 4-[3-[(2-aminoethyl)amino]-1H-indazol-5-yl]-1,4-dihydro-2,6-dimethyl-3,5-pyridinedicarbonitrile], the IC50 is less than 100 nM.

As for `CC1=C(C#N)C(c2ccc3[nH]nc(NCCN4CCCC4)c3c2)C(C#N)=C(C)N1` [compound 309, 1,4-dihydro-2,6-dimethyl-4-[3-[[2-(1-pyrrolidinyl)ethyl]amino]-1H-indazol-5-yl]-3,5-pyridinedicarbonitrile], the IC50 is less than 100 nM.

Tested on in another series: not given
Test: not given
Details: not given
Turning to `CCNc1n[nH]c2ccc(C3C(C#N)=C(C)NC(C)=C3C#N)cc12` [compound 121, 4-[3-(ethylamino)-1H-indazol-5-yl]-1,4-dihydro-2,6-dimethyl-3,5-pyridinedicarbonitrile], the melting point turned out to be 247.6 °C.

One may read the IC50 as the concentration at which inhibition is half-maximal. Usually melting point stands for the temperature of the solid-liquid transition.
